In patent US20220323596A1, “ANTIBODY CONJUGATES OF TOLL-LIKE RECEPTOR AGONISTS” (SILVERBACK THERAPEUTICS, INC., priority 2018, published 2022):

The molecules below were run against T1, TLR7 (Mus musculus, UniProt P58681) (assay: In vitro TLR7 small molecule screening: murine TNFα production by bone marrow-derived murine macrophages). Settings: murine TNFα by ELISA after overnight culture; 1000 to 0.06 nM; non-linear regression.
T1 construct: endogenous in cells; host or cells: Balb/c mouse bone marrow-derived macrophages, differentiated with M-CSF
T1 sequence (P58681 27-1050): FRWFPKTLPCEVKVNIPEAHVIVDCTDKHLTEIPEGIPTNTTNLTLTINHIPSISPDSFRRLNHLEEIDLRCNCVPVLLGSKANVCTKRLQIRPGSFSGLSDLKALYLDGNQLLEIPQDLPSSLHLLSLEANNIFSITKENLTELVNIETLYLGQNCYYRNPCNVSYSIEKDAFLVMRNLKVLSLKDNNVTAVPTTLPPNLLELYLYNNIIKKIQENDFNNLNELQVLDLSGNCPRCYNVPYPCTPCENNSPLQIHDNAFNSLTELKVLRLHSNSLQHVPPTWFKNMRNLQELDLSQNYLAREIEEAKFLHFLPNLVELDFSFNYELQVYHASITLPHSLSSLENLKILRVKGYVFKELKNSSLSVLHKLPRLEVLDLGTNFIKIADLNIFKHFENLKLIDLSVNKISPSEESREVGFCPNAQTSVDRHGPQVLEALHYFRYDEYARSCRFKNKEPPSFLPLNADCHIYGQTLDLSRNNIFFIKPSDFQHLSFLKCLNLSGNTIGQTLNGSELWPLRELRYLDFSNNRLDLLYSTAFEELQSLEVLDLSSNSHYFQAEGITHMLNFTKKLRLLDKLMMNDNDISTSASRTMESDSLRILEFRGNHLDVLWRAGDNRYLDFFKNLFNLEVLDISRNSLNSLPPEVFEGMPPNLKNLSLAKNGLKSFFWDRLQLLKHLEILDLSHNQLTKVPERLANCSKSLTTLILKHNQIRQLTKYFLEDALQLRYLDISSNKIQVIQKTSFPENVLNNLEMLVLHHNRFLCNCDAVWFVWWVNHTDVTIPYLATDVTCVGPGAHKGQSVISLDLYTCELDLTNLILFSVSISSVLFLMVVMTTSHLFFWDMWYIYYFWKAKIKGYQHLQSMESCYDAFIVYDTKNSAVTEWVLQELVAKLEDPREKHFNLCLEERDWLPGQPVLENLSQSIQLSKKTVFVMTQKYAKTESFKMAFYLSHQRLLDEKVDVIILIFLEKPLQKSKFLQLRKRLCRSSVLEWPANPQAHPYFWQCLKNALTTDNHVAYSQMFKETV
Assay type: cell-based
Protocol: Murine macrophages were derived from bone marrow cells from a Balb/c mouse. Briefly, murine bone marrow cells were isolated and resuspended in cDMEM media (high glucose DMEM (HyClone) supplemented with 10% fetal bovine serum (HyClone), 1 mM Sodium Pyruvate (HyClone), 2 mM L-glutamine (Gibco), 10 mM HEPES (HyClone), 1×NEAA (Gibco), 50 U/mL penicillin, 50 U/mL streptomycin (HyClone)) and seeded at 5e5 cells/mL in the presence of 20 ng/mL murine M-CSF (Peprotech) and incubated at 37° C., 5% CO2 for 7 days to differentiate into murine macrophages.
After differentiation, bone marrow-derived murine macrophages were plated in 96-well flat bottom microtiter plates (80,000/well) along with titrating concentrations of TLR7 small molecules ranging from 1000 to 0.06 nM in cRPMI media (RPMI-1640 (HyClone) supplemented with 10% fetal bovine serum (HyClone), 1 mM Sodium Pyruvate (HyClone), 2 mM L-glutamine (Gibco), 10 mM HEPES (HyClone), 1×NEAA (Gibco), 50 U/mL penicillin, 50 U/mL streptomycin (HyClone)). After overnight culture, supernatants were harvested and murine TNFα levels were determined by ELISA (BioLegend). Table 4. […] Data was analyzed using GraphPad Prism 7.01 software (GraphPad Software) and EC50 values calculated using non-linear regression. The TLR7 small molecules were active, stimulating production of murine TNFα in a dose-dependent manner from the murine macrophages. Compound A is represented by the formula: […]

Q: Which EC50 does the source give for `CCOCc1nc2c(NC(=O)[C@H](C)NC(=O)OC(C)(C)C)nc3ccccc3c2n1CC(C)(C)OCCNC(=O)C(C)(C)NC(=O)OCc1ccccc1` [Compound 1.3, benzyl (S)-(1-((2-((1-(4-(2-((tert-butoxycarbonyl)amino)propanamido)-2-(ethoxymethyl)-1H-imidazo[4,5-c]quinolin-1-yl)-2-methylpropan-2-yl)oxy)ethyl)amino)-2-methyl-1-oxopropan-2-yl)carbamate] here?
A: 1680 nM

Q: How did the EC50 turn out when `CCOCc1nc2c(NC(=O)[C@H](CCCNC(N)=O)NC(=O)[C@@H](N)C(C)C)nc3ccccc3c2n1CC(C)(C)OCCNC(=O)OC(C)(C)C` [Compound 1.5, tert-butyl (2-((1-(4-((S)-2-((S)-2-amino-3-methylbutanamido)-5-ureidopentanamido)-2-(ethoxymethyl)-1H-imidazo[4,5-c]quinolin-1-yl)-2-methylpropan-2-yl)oxy)ethyl)carbamate] was run?
A: 4 nM

Q: How did the EC50 turn out when `CCOCc1nc2c(NC(=O)[C@H](C)N)nc3ccccc3c2n1CC(C)(C)OCCNC(=O)C(C)(C)NC(=O)OCc1ccccc1` [Compound 1.6, benzyl (S)-(1-((2-((1-(4-(2-aminopropanamido)-2-(ethoxymethyl)-1H-imidazo[4,5-c]quinolin-1-yl)-2-methylpropan-2-yl)oxy)ethyl)amino)-2-methyl-1-oxopropan-2-yl)carbamate] was run?
A: 657 nM

Q: With `CCOCc1nc2c(N)nc3ccccc3c2n1CC(C)(C)OCCNC(=O)C(C)(C)NC(=O)OCc1ccccc1` [Compound 1.1, benzyl (1-((2-((1-(4-amino-2-(ethoxymethyl)-1H-imidazo[4,5-c]quinolin-1-yl)-2-methylpropan-2-yl)oxy)ethyl)amino)-2-methyl-1-oxopropan-2-yl)carbamate] as the molecule, how does the EC50 read?
A: 20 nM

Q: `CCOCc1nc2c(N)nc3ccccc3c2n1CC(C)(C)OCCN` [Compound A, reference compound] was tested. Which EC50 did it give?
A: 73 nM

Q: Which EC50 does the source give for `CCOCc1nc2c(NC(=O)[C@H](C)NC(=O)C3CCCN3C(=O)OC(C)(C)C)nc3ccccc3c2n1CC(C)(C)OCCNC(=O)C(C)(C)NC(=O)OCc1ccccc1` (stereo partly drawn) [Compound 1.7, tert-butyl 2-(((S)-1-((2-(ethoxymethyl)-1-(5,5,11,11-tetramethyl-3,6-dioxo-1-phenyl-2,10-dioxa-4,7-diazadodecan-12-yl)-1H-imidazo[4,5-c]quinolin-4-yl)amino)-1-oxopropan-2-yl)carbamoyl)pyrrolidine-1-carboxylate] here?
A: 503 nM

Q: Which EC50 does the source give for `CCOCc1nc2c(NC(=O)[C@H](CCCNC(N)=O)NC(=O)[C@@H](NC(=O)OCC3c4ccccc4-c4ccccc43)C(C)C)nc3ccccc3c2n1CC(C)(C)OCCNC(=O)OC(C)(C)C` [Compound 1.8, (9H-fluoren-9-yl)methyl ((S)-1-(((S)-1-((1-(2-(2-((tert-butoxycarbonyl)amino)ethoxy)-2-methylpropyl)-2-(ethoxymethyl)-1H-imidazo[4,5-c]quinolin-4-yl)amino)-1-oxo-5-ureidopentan-2-yl)amino)-3-methyl-1-oxobutan-2-yl)carbamate] here?
A: 59 nM

Q: How did the EC50 turn out when `CCOCc1nc2c(N)nc3ccccc3c2n1CC(C)(C)OCCNC(=O)OC(C)(C)C` [Compound 1.4, tert-butyl (2-((1-(4-amino-2-(ethoxymethyl)-1H-imidazo[4,5-c]quinolin-1-yl)-2-methylpropan-2-yl)oxy)ethyl)carbamate] was run?
A: 1.2 nM

These molecules were tested on BMDM with SK-BR-3 (HER2pos) (assay: mTNFα from mouse bone marrow derived macrophages co-cultured with SK-BR-3 (HER2pos) cells). Settings: 24 hours co-culture with HER2pos SK-BR-3.
Assay type: cell-based
Protocol: (§1) The ability of an anti-HER2-TLR7 conjugate to specifically activate mouse macrophages when bound to tumor cells by HER2 was assessed in vitro as follows. Bone marrow cells were harvested from BALB/cJ mouse femurs and tibias using a 27-gauge needle attached to a 3 mL syringe filled with growth media (DMEM supplemented with 10% Fetal Bovine Serum, 1 mM Sodium Pyruvate, 1× GlutaMAX-1, 1× Non-Essential Amino Acids, 10 mM HEPES and 0.5% Penicillin/Streptomycin). Bone marrow cells were centrifuged, and RBC lysed before being counted and resuspended at a concentration 5×10^5/mL in growth media. Ten mL of cell suspension was placed in 10 cm dishes and 20 ng/mL murine macrophage-colony-stimulating factor (mM-CSF) was added. Cells were incubated for two days, media replaced with fresh growth media containing 20 ng/mL mM-CSF, and then cultured for a further four days. BMDM and tumor cell lines SK-BR-3 (HER2pos) or MDA-MB-468 (HER2neg) were removed from plates with Accutase cell detachment solution and counted. […] Murine TNFα (mTNFα) levels in the supernatant were determined by mTNFα ELISA Kit (BioLegend) and read on an Envision Plate Reader (Perkin Elmer, Waltham, Mass.) according to manufactures instructions. mTNFα levels were then graphed using GraphPad Prism 7.01 software (GraphPad Software, San Diego, Calif.) and EC50 values generated using non-linear regression curve fit.

Q: With `CCOCc1nc2c(N)nc3ccccc3c2n1CC(C)(C)OCCNC(=O)C(C)(C)N` [Compound 1.2, 2-amino-N-(2-((1-(4-amino-2-(ethoxymethyl)-1H-imidazo[4,5-c]quinolin-1-yl)-2-methylpropan-2-yl)oxy)ethyl)-2-methylpropanamide] as the molecule, how does the “activation of mouse bone marrow cells (mTNFα)” value read?
A: potently activating

What follows are molecules tested on BMDM with MDA-MB-468 (HER2neg) (assay: mTNFα from mouse bone marrow derived macrophages co-cultured with MDA-MB-468 (HER2neg) cells). Settings: 24 hours co-culture with HER2neg MDA-MB-468.
Assay type: cell-based
Protocol: as §1

Q: `CCOCc1nc2c(N)nc3ccccc3c2n1CC(C)(C)OCCNC(=O)C(C)(C)N` [Compound 1.2, 2-amino-N-(2-((1-(4-amino-2-(ethoxymethyl)-1H-imidazo[4,5-c]quinolin-1-yl)-2-methylpropan-2-yl)oxy)ethyl)-2-methylpropanamide] was tested. Which “activation of mouse bone marrow cells (mTNFα)” value did it give?
A: potently activating
